# According to paper PMC11982498 (Redox Biology, 2025):
# What was measured:
# [1] = tested on: BCL-2 promoter G-quadruplex; assay: CD melting experiment, BCL-2 G-quadruplex; assay type: binding; conditions: Tris-HCl buffer pH 7.4; 20 equivalents (20 μM) compound
# Method: CD-melting experiment was carried out following a published method without significant modification. BCL-2 promoter i-motif and G-quadruplex structures at a concentration of 5 μM were annealed in buffer at 95 °C for 10 min, and then cooled to room temperature. The annealed samples were incubated with B14 for 6 h, and then molar ellipticity at 287 nm for i-motif structure or 260 nm for G-quadruplex structure, where the CD value was the highest in our experiment, was measured over a temperature range of 20–90 °C at a heating rate of 0.5 °C/min. Tm values were determined and calculated through nonlinear regression curve fitting with software GraphPad Prism 9.0. (GraphPad Software Inc., California, USA).
# Figure S6. CD melting experiments were performed to examine the effects of B14 and A22 on BCL-2 promoter i-motif and G-quadruplex. (A-H) CD melting experiments were performed for BCL-2 promoter i-motif or G-quadruplex in the absence or presence of B14 (2, 5, 20 equivalents) and A22 (20 equivalents). The oligonucleotide for BCL-2 i-motif was annealed in 1 X BPES buffer at pH 5.5, while the oligonucleotide for BCL-2 G-quadruplex was annealed in 20 mM Tris-HCl buffer with 20 mM NaCl at pH 7.4. The ΔTm values for the effects of B14 and A22 on BCL-2 promoter i-motif were determined to be 11.26 °C and 11.82 °C, respectively. […]
# [2] = tested on: bEnd.3 in vitro BBB model; assay: Measurement of in vitro BBB transport (bEnd.3 transwell); assay type: in vitro ADME
# Method: bEnd.3 (10 × 10^4 cells/well) was cultured in the upper chamber of a 12 wells-plate within a transwell system. The transepithelial electrical resistance (TEER) was measured to monitor the tightness of the monolayer, and the monolayer of cells with a minimum of 200 Ω cm^2 was used for further experiments.
compound,measurement,setting,value
O=C(CCN1CCOCC1)Nc1ccc2c(c1)c(=O)c1cc(NC(=O)CCN3CCOCC3)ccc1n2-c1ccc2occc2c1 [Compound B14],ΔTm (CD melting),[1],−3.13 °C
same,Permeability,[2]; 6 h,45.80%
same,Permeability,[2]; 24 h,55.74%
